Results reported in the CheMixHub viscosity set.

Test: xn = mol fraction of the nth substance listed

C1CCC2CCCCC2C1 (centres undefined) + CC(C)CC(C)(C)C
viscosity [mPa·s], 101 kPa
Conditions | x2 = 0.1031 | x2 = 0.1995 | x2 = 0.299 | x2 = 0.4001 | x2 = 0.5004 | x2 = 0.6002 | x2 = 0.6994 | x2 = 0.8002 | x2 = 0.899
293.15 K | 2.019 | 1.701 | 1.435 | 1.203 | 1.026 | 0.876 | 0.758 | 0.656 | 0.571
298.15 K | 1.842 | 1.561 | 1.323 | 1.114 | 0.955 | 0.818 | 0.711 | 0.62 | 0.54
303.15 K | 1.688 | 1.436 | 1.223 | 1.034 | 0.89 | 0.765 | 0.667 | 0.581 | 0.509
308.15 K | 1.553 | 1.327 | 1.135 | 0.963 | 0.831 | 0.717 | 0.627 | 0.547 | 0.482
313.15 K | 1.434 | 1.23 | 1.056 | 0.905 | 0.778 | 0.673 | 0.59 | 0.516 | 0.456
318.15 K | 1.328 | 1.142 | 0.983 | 0.838 | 0.727 | 0.63 | 0.552 | 0.483 | 0.425
323.15 K | 1.234 | 1.066 | 0.921 | 0.788 | 0.686 | 0.597 | 0.525 | 0.461 | 0.408

CCCCCCCC + CO
298.15 K, 101.33 kPa
Conditions | viscosity [mPa·s]
x1 = 0.0147 | 0.553
x2 = 0.0367 | 0.536
x2 = 0.0682 | 0.547
x2 = 0.0725 | 0.548
x2 = 0.0933 | 0.555
x2 = 0.1159 | 0.563
x2 = 0.9531 | 0.556
x2 = 0.9687 | 0.554

CCCCC(C)=O + CC(=O)CC(C)C
298.15 K, 101 kPa
Conditions | viscosity [mPa·s]
x2 = 0.1164 | 0.581
x2 = 0.2196 | 0.575
x2 = 0.3357 | 0.571
x2 = 0.4413 | 0.566
x2 = 0.5503 | 0.562
x2 = 0.6632 | 0.558
x2 = 0.7765 | 0.553
x2 = 0.8841 | 0.548

CCCCCO + CO
298.15 K, 101.33 kPa
Conditions | viscosity [mPa·s]
x2 = 0.1748 | 2.71
x2 = 0.2198 | 2.528
x2 = 0.327 | 2.143
x2 = 0.4302 | 1.813
x2 = 0.5186 | 1.57
x2 = 0.5951 | 1.372
x2 = 0.652 | 1.236
x2 = 0.7911 | 0.932
x2 = 0.8761 | 0.77

CCCCCCCC + C1CCCCC1
Conditions | viscosity [mPa·s]
298.15 K, 100 kPa, x2 = 0.2 | 0.5398
298.15 K, 100 kPa, x2 = 0.4 | 0.5777
298.15 K, 100 kPa, x2 = 0.6 | 0.6273
298.15 K, 100 kPa, x2 = 0.8 | 0.7162
298.15 K, 101.33 kPa, x2 = 0.0972 | 0.516
298.15 K, 101.33 kPa, x2 = 0.1084 | 0.5318
298.15 K, 101.33 kPa, x2 = 0.2042 | 0.53
298.15 K, 101.33 kPa, x2 = 0.2223 | 0.549
298.15 K, 101.33 kPa, x2 = 0.3014 | 0.548
298.15 K, 101.33 kPa, x2 = 0.3199 | 0.569
298.15 K, 101.33 kPa, x2 = 0.4044 | 0.568
298.15 K, 101.33 kPa, x2 = 0.412 | 0.5851
298.15 K, 101.33 kPa, x2 = 0.5009 | 0.607
298.15 K, 101.33 kPa, x2 = 0.5017 | 0.591
298.15 K, 101.33 kPa, x2 = 0.5763 | 0.628
298.15 K, 101.33 kPa, x2 = 0.6029 | 0.62
298.15 K, 101.33 kPa, x2 = 0.6597 | 0.6568
298.15 K, 101.33 kPa, x2 = 0.7041 | 0.661
298.15 K, 101.33 kPa, x2 = 0.7236 | 0.6788
298.15 K, 101.33 kPa, x2 = 0.7926 | 0.7148
298.15 K, 101.33 kPa, x2 = 0.8014 | 0.705
298.15 K, 101.33 kPa, x2 = 0.8586 | 0.8162
298.15 K, 101.33 kPa, x2 = 0.8971 | 0.774
298.15 K, 101.33 kPa, x2 = 0.9173 | 0.8737
298.15 K, 101.33 kPa, x2 = 0.9767 | 0.8737
303.15 K, 101 kPa, x2 = 0.1031 | 0.4956
303.15 K, 101 kPa, x2 = 0.1978 | 0.51
303.15 K, 101 kPa, x2 = 0.2979 | 0.5238
303.15 K, 101 kPa, x2 = 0.4018 | 0.5434
303.15 K, 101 kPa, x2 = 0.4842 | 0.5614
303.15 K, 101 kPa, x2 = 0.7004 | 0.6348
303.15 K, 101 kPa, x2 = 0.8984 | 0.7473
303.15 K, 101.33 kPa, x2 = 0.0972 | 0.487
303.15 K, 101.33 kPa, x2 = 0.2042 | 0.498
303.15 K, 101.33 kPa, x2 = 0.3014 | 0.515
303.15 K, 101.33 kPa, x2 = 0.4044 | 0.533
303.15 K, 101.33 kPa, x2 = 0.5017 | 0.554
303.15 K, 101.33 kPa, x2 = 0.6029 | 0.581
303.15 K, 101.33 kPa, x2 = 0.7041 | 0.614
303.15 K, 101.33 kPa, x2 = 0.8014 | 0.656
303.15 K, 101.33 kPa, x2 = 0.8971 | 0.717
308.15 K, 101.33 kPa, x2 = 0.0972 | 0.459
308.15 K, 101.33 kPa, x2 = 0.2042 | 0.469
308.15 K, 101.33 kPa, x2 = 0.3014 | 0.483
308.15 K, 101.33 kPa, x2 = 0.4044 | 0.501
308.15 K, 101.33 kPa, x2 = 0.5017 | 0.518
308.15 K, 101.33 kPa, x2 = 0.6029 | 0.543
308.15 K, 101.33 kPa, x2 = 0.7041 | 0.573
308.15 K, 101.33 kPa, x2 = 0.8014 | 0.608
308.15 K, 101.33 kPa, x2 = 0.8971 | 0.664
323.15 K, 100 kPa, x2 = 0.2 | 0.4103
323.15 K, 100 kPa, x2 = 0.4 | 0.4326
323.15 K, 100 kPa, x2 = 0.6 | 0.4655
323.15 K, 100 kPa, x2 = 0.8 | 0.5138

Cc1nc(C)c(C)[nH]1 + O
viscosity [mPa·s], 100 kPa
Conditions | x1 = 0.0179 | x1 = 0.0393 | x1 = 0.0655 | x1 = 0.0983 | x1 = 0.141
298.15 K | 1.317 | 2.01 | 3.12 | 5.27 | 9.35
303.15 K | 1.157 | 1.754 | 2.71 | 4.41 | 7.38
313.15 K | 0.944 | 1.384 | 2.08 | 3.24 | 4.87
323.15 K | 0.774 | 1.1 | 1.598 | 2.4 | 3.44

CCCCCO + CC#N
viscosity [mPa·s], 101 kPa
Conditions | 298.15 K | 303.15 K | 308.15 K
x2 = 0.1083 | 2.485 | 1.966 | 1.752
x2 = 0.1933 | 1.918 | 1.703 | 1.519
x2 = 0.2503 | 1.717 | 1.477 | 1.334
x2 = 0.3407 | 1.33 | 1.2 | 1.088
x2 = 0.4797 | 0.963 | 0.879 | 0.804
x2 = 0.5899 | 0.747 | 0.688 | 0.636
x2 = 0.6833 | 0.619 | 0.569 | 0.527
x2 = 0.7642 | 0.525 | 0.486 | 0.458
x2 = 0.8347 | 0.452 | 0.428 | 0.41
x2 = 0.8958 | 0.418 | 0.392 | 0.369
x2 = 0.9508 | 0.374 | 0.357 | 0.342

O=[N+]([O-])c1ccccc1 + Cc1ccccc1
viscosity [mPa·s], 101 kPa
Conditions | x1 = 0.115 | x1 = 0.227 | x1 = 0.344 | x1 = 0.457 | x1 = 0.577 | x1 = 0.675 | x1 = 0.787 | x1 = 0.87
298.15 K | 0.622 | 0.702 | 0.803 | 0.894 | 1.03 | 1.169 | 1.374 | 1.542
303.15 K | 0.586 | 0.66 | 0.743 | 0.837 | 0.956 | 1.08 | 1.252 | 1.42
308.15 K | 0.554 | 0.618 | 0.694 | 0.783 | 0.922 | 1.042 | 1.157 | 1.313
